This note sets out measurements from patent US20250382556A1, “MODULATION OF THE BRANCHED-CHAIN METABOLITE CONTENT OF FRUITS AND VEGETABLES” (BOARD OF TRUSTEES OF MICHIGAN STATE UNIVERSITY, priority 2024, published 2025).

Molecules are shown by their SMILES.

The test system of one assay is apple peel tissues. Briefly: Labeled (1,2-13C2) acetate and methanol feeding of excised apple peel. The arrangement: species or system Malus x domestica Borkh. Conditions: for reduction of methyl 2-methylbutanoate content: 1 mM rimsulfuron. The protocol: Acetate feedings were likewise performed with excised peel tissues in 22-mL glass vials and 20 μL of treatment solution. ‘Gala’ fruit were fed with 10 mM methanol, 10 mM acetate (unlabeled or 1,2-^13C2) pH 7 balanced with KOH, 0.05% Tween 20, and 0.5 mM rimsulfuron if appropriate. These concentrations were doubled for ‘Empire’ and ‘Jonagold’ fruit.
Headspace volatiles from small tissue samples incubated in 22 mL vials were adsorbed for 30 s using a solid-phase micro extraction (SPME) fiber (65 μm PDMS-DVB; Supelco Analytical). The SPME fiber was then directly desorbed for 1 min in the injection port of a gas chromatograph (GC; HP-6890, Hewlett-Packard) coupled to a time-of-flight mass spectrometer (MS; Pegasus II, LECO). Whole fruits and banana slices were incubated for 20 min at room temperature (22° C.) in 1-L sealed Teflon jars before a 15-s, or 3-min adsorption and 1- or 2-min desorption. Adsorption times were adjusted to ensure instrument responses were in the linear range. All desorbed volatiles were cryofocused at the beginning of the column by immersing said region of the column in liquid nitrogen. After the desorption period, the run was initiated and the liquid nitrogen removed.
The conditions of the system were as follows. Injection port: 200° C., splitless, ultra-purified helium (99.999%) carrier gas, front inlet flow 1.5 mL·min^−1 constant, 10 mL·min^−1 purge flow, 11.5 mL·min^−1 total flow. Oven: initial temperature 40° C. for 0 min, ramped by 43° C.·min^−1 to 185° C. for 0 min. Column: HP-5 MS, 30 m×0.25 mm i.d., 0.25 μm film thickness (Agilent). Transfer line temperature 225° C. MS: Electron ionization (−70 eV), ion source temperature 200° C., solvent delay 50 sec, m/z range 29 to 400, detector voltage 1500 V, data collection rate 20 Hz.

In assay [1] the test system is ripe ‘Red Delicious’ apple fruit. Briefly: Precursor (isoleucine, α-ketoacid) content of ripe apple peel via derivatization and GCMS, time course. Format: in vivo, Malus x domestica Borkh. The conditions noted are these: 1 mM rimsulfuron. The protocol: ‘Red Delicious’ apple fruit held in refrigerated air for 5 months (see above) plus 1 day at 22° C. and at an advanced ripeness stage (‘ripe’) were treated with rimsulfuron (1 mM) with 0.2% Tween 20 on day 0 of the study and for the next three consecutive days as above described. The fruit were evaluated daily for volatile emissions (see below) for eight days. On days 0, 2, 4, and 7, representative treated and untreated fruit were selected for tissue collection for metabolite analysis (see below). On day 7, samples of fruit peel were fed, as described above, with water or 20 mM isoleucine or α-keto-β-methylvalerate.
To simultaneously quantify branched-chain α-ketoacids and amino acids, 100 mg of ground frozen tissue was extracted in 2 mL of 1:1 acetonitrile: water containing 13 μM U-^13C, ^15N labeled amino acids (MilliporeSigma) as internal standard for 15 min in a 65° C. water bath. […]
One microliter of derivatized sample was analyzed with a GC (Agilent 6890) coupled to a time-of-flight MS (Pegasus II, LECO). […]
Compounds were identified by retention time and spectra of derivatized authenticated standards. Quantification was performed by comparison of the ratios of peak areas of metabolites to labeled internal standards. […] Calibration standards consisted of equimolar mixtures of the analyzed compounds that mimicked 15-0.15 nmoles of analyte in the final derivatized sample. […]

For the molecule `CCS(=O)(=O)c1cccnc1S(=O)(=O)NC(=O)Nc1nc(OC)cc(OC)n1` [rimsulfuron, N-((4,6-dimethoxypyrimidin-2-yl)aminocarbonyl)-3-(ethylsulfonyl)-2-pyridinesulfonamide], in the assay on apple peel tissues (Empire and Jonagold, on average, 1,2-13C2 acetate), the “M+1 and M+2 methyl pentanoate isotopologs collectively more enriched after treatment” value is 4.28 fold. Moreover, in the assay on apple peel tissues (Empire peel fed methanol and acetate), the “reduction of methyl 2-methylbutanoate content” value came out at 99.4%. Moreover, the “reduction of methyl 2-methylbutanoate content” value in the assay on apple peel tissues (Jonagold peel fed methanol and acetate) is listed as 100%. Also, the “enrichment of M+1 isotopolog of methyl hexanoate” value in the assay on apple peel tissues (Jonagold, 1,2-13C2 acetate) was “slightly more enrichment than controls”. In addition, in assay [1], the “isoleucine content, plateau, of control levels” value worked out at 29.1% and the “α-keto-β-methylvalerate content, plateau, of control levels” value was found to be 51.1%.
